Reference: paper PMC6152156 (Molecules : A Journal of Synthetic Chemistry and Natural …, 2017)

What was measured:
[1] = test system: APPsw-SY5Y cells; settings: Akt/JNK signaling pathway; cited from earlier work
[2] = test system: APP/PS1 transgenic mice; set-up: method as in PMID 26476132; settings: cited from earlier work
[3] = test system: Aβ-treated mice; set-up: method as in PMID 27498773; settings: Aβ-treated mice model; cited from earlier work
[4] = target: T1, AChE (Rattus norvegicus, UniProt P37136); experiment: AChE kinetic study (Lineweaver-Burk and Dixon plots); format: biochemical
T1 construct: AChE was derived from the SD rat brains by homogenizing the brain with 20-fold saline solution; from tissue; host or cells: SD rat brain homogenate (supernatant after 800 x g)
T1 sequence (P37136 32-614): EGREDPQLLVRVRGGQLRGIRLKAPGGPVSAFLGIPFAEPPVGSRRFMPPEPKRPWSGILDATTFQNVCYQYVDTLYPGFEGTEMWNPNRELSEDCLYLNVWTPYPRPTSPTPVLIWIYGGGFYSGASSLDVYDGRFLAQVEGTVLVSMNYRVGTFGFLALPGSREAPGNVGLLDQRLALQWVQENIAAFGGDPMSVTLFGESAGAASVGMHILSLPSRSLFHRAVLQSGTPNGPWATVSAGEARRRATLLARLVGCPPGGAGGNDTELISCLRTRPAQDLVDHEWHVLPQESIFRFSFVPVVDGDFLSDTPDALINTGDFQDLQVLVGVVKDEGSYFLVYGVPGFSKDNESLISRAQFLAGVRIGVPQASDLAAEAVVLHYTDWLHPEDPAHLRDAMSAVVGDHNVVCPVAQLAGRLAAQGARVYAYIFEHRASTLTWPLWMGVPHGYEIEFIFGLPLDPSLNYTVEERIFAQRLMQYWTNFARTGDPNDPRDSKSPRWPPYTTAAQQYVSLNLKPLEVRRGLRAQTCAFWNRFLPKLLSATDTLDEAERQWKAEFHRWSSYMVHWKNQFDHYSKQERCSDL
Procedure: (§1) To have an insight into how structure modification affected the inhibitory activities, molecular docking and kinetics studies were performed for DL0410, compounds 6-1 and 7-6. After the docking parameters were set, the crystal poses of donepezil and N-((1-benzylpiperidin-3-yl)methyl)-N-(2-methoxyethyl) naphthalene-2-sulfonamide were first re-docked into the binding site pocket of AChE and BuChE, respectively. Donepezil is a mixed-type inhibitor of AChE used in the palliative treatment of AD [25]. N-((1-benzylpiperidin-3-yl)methyl)-N-(2-methoxyethyl) naphthalene-2-sulfonamide is a potent, selective, and reversible human BuChE inhibitor, which can improve memory, cognitive functions, and learning abilities. The root mean square deviation (RMSD) values between the docking and initial poses were 0.872 and 1.253, respectively, which implied that the docking models built by CDOCKER could reproduce the crystal binding model and were suitable for the AChE and BuChE system. DL0410 and two highly inhibitory compounds (compounds 6-1 and 7-6) were docked to the active pockets of AChE and BuChE. For AChE, these three compounds could dock to TRP86 of CAS via π-Alkyl interaction or electrostatic attraction, near the bottom of the active site gorge, and TRP286 of PAS via π-π stacking interaction, near its entrance (Figure 4). The value of –CDOCKER INTERACTION ENERGY was followed by compound 6-1 > compound 7-6 > DL0410. The dibenzofuran of compound 6-1 formed stronger π-π stacking interaction with TYR341 and TRP286, and the carbonyl formed hydrogen bond with TYR72. In addition, hydrogen bond interaction of compound 7-6 made it high inhibition for AChE. […] There existed more hydrogen bonds for compound 7-6, and a highly electronegative fluorine atom caused its strong interaction with GLY116. Therefore, the fluorine atom substitution and the structure of dibenzofuran made compounds 6-1 and 7-6 different from DL0410. Compound 7-6 formed more hydrogen bonds with AChE and BuChE. The structure of dibenzofuran caused the extension direction of compound 6-1 to change, which was more conducive to forming electrostatic attractive interactions. In silico results were consistent with the kinetics studies of AChE and BuChE. […] The inhibition kinetic data were analyzed by Lineweaver-Burk and Dixon plots. The Lineweaver-Burk plot provides a useful means of distinguishing among competitive inhibition, non-competitive inhibition, and mixed inhibition, whereas the merit of the Dixon plot is that one can expediently determine Ki from the kinetic data. […] The results of the kinetics studies also validated that the three compounds were, indeed, capable of binding to CAS and PAS of AChE/BuChE. The PAS site could […] their catalytic efficiency, which led to high inhibitory effects.
(§2) Figure 6 The Lineweaver-Burk plots of DL0410, compound 6-1 and compound 7-6 on AChE inhibitory activity (A–C). The Lineweaver-Burk plots of DL0410, compound 6-1 and compound 7-6 on BuChE inhibitory activity (D–F). Kinetic analysis of AChE and BuChE was performed by using three effective concentrations of DL0410, compound 6-1 and compound 7-6 (0.1, 0.3, 1 μM for AChE, and 0.3, 1, 3 μM for BuChE) with the incubation of five different substrate concentrations (1.25, 2.5, 5, 10, 20 mM for AChE, and 2, 4, 8, 16, 32 mM for BuChE). […] (n = 3; a = mM^−1; b = min/ΔA).
(§3) Figure 7 Ki values were determined by Dixon plots. […] Figure D–F presented the Dixon plots of DL0410, compound 6-1 and compound 7-6 on BuChE inhibitory activity, respectively. […] (n = 3; b = min/ΔA).
(§4) It is important to determinate the type of inhibition in an effort to understand the mechanism of inhibition and the binding sites of the inhibitor sites. […]

[5] = target: T2, BuChE (Homo sapiens, UniProt P06276); experiment: BuChE kinetic study (Lineweaver-Burk and Dixon plots); format: biochemical
T2 construct: BuChE was obtained from human plasma (purchased from Beijing Red Cross Blood Center China); tissue Beijing Red Cross Blood Center China; host or cells: human plasma, diluted 200-fold with 0.05 M PBS
T2 sequence (P06276 29-602): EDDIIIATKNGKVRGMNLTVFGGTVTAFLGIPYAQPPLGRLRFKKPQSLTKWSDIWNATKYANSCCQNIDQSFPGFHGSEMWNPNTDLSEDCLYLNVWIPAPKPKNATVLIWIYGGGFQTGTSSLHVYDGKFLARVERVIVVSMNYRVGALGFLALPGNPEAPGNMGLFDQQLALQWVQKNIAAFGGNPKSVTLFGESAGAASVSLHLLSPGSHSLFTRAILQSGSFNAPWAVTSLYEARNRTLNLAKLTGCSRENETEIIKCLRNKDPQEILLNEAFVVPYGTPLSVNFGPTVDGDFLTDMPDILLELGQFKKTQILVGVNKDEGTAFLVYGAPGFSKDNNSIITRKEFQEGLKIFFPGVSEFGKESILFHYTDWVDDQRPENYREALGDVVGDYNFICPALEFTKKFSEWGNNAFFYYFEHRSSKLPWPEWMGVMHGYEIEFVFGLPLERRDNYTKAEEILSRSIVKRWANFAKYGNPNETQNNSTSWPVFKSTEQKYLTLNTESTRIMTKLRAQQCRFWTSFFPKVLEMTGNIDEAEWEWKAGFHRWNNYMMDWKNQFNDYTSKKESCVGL
Procedure: as §1, §2, §3, §4

O=C(CCN1CCCCC1)c1ccc(-c2ccc(C(=O)CCN3CCCCC3)cc2)cc1 [Compound 1-1]
neuronal protection [1]: exerted neuronal protection | learning and memory dysfunction [2]: improved learning and memory dysfunction | Aβ deposits in cerebral cortices [3]: reduced Aβ deposits in cerebral cortices | Ki ([4]; Dixon plot, inhibitor 0.1, 0.3, 1 μM, substrate 1.25-20 mM, n = 3): 1.65 ± 0.14 µM | type of inhibition of AChE ([4]; Lineweaver-Burk plot): mixed-type | Ki ([5]; Dixon plot, inhibitor 0.3, 1, 3 μM, five substrate concentrations, n = 3): 1.81 ± 0.08 µM | type of inhibition of BuChE ([5]; Lineweaver-Burk plot): mixed-type
